Laboratory results reported in PMC5613062 (Investigational New Drugs, 2017).
Where two headings read alike, the source gives them in different places. One block for each molecule: values may come before it.

Columns and labels:
[1] = design: method as in earlier work; details: daily oral administration in SBE-CD for 1 month, rats; ref IB; cited from earlier work
[2] = test system: Ki67; design: method as in Study ARRY-0401; details: 100 mg BD; ref Study ARRY-0401; cited from earlier work
[3] = test system: tumor pERK; design: method as in Study ARRY-0401; details: 100 mg BD, Day 15 compared with pre-dose; 90% CI 50% to 93%; ref Study ARRY-0401; cited from earlier work
[4] = design: method as in earlier work; details: ref IB; cited from earlier work
[5] = ref Study ARRY-0401, cited from earlier work
[6] = design: method as in earlier work; details: cynomolgus monkeys dosed for up to one month; ref IB; cited from earlier work
[7] = Pharmacokinetics alone and in combination, selumetinib + erlotinib arm; details: for tmax: median (range)
[8] = test system: cell viability; design: method as in earlier work; details: more active than parent; ref IB; cited from earlier work
[9] = Pharmacokinetics alone and in combination, selumetinib + temsirolimus arm; assay type: in vivo, human; details: for AUC(0–8) / AUC(0–12) / Cmax / AUC(0-t): geometric mean (% CV); for tmax: median (range); for PK parameters when administered alone and in combination: selumetinib + temsirolimus arm; for AUC(0-t): read-out: AUC(0–8)
[10] = test system: ERK phosphorylation; design: method as in earlier work; details: cultured cells; more active than parent; ref IB; cited from earlier work
[11] = test system: CYP1A2; design: method as in earlier work; details: weak inhibition; ref IB; cited from earlier work
[12] = design: method as in LoRusso et al 2005; details: Phase I-II trial; ref LoRusso et al 2005; cited from earlier work
[13] = design: method as in product label; details: ref product label; cited from earlier work
[14] = ref product label, cited from earlier work
[15] = geometric mean (% CV), dosed alone, selumetinib 50 mg cohort (N = 14), erlotinib 100 mg QD
[16] = geometric mean (% CV), dosed alone, selumetinib 75 mg cohort (N = 6), erlotinib 100 mg QD
[17] = geometric mean (% CV), dosed in combination, selumetinib 50 mg BID (N = 12) + erlotinib 100 mg QD
[18] = geometric mean (% CV), dosed in combination, selumetinib 75 mg BID (N = 6) + erlotinib 100 mg QD
[19] = geometric mean, QD cohorts, dosed alone, selumetinib 50 mg cohort (N = 7), erlotinib 100 mg QD
[20] = geometric mean, QD cohorts, dosed alone, selumetinib 100 mg cohort (N = 6), erlotinib 100 mg QD
[21] = geometric mean, QD cohorts, dosed alone, selumetinib 150 mg cohort (N = 13), erlotinib 100 mg QD
[22] = geometric mean, QD cohorts, in combination, selumetinib 50 mg (N = 6) + erlotinib 100 mg QD
[23] = geometric mean, QD cohorts, in combination, selumetinib 100 mg (N = 6) + erlotinib 100 mg QD
[24] = geometric mean, QD cohorts, in combination, selumetinib 150 mg (N = 12) + erlotinib 100 mg QD
[25] = dosed alone, selumetinib 50 mg cohort (N = 25), temsirolimus 25 mg IV
[26] = dosed alone, selumetinib 75 mg cohort (N = 6), temsirolimus 25 mg IV
[27] = dosed in combination, selumetinib 50 mg BID (N = 22) + temsirolimus 25 mg IV
[28] = dosed in combination, selumetinib 75 mg BID (N = 5) + temsirolimus 25 mg IV

SMILES: Cn1cnc2c(F)c(Nc3ccc(Br)cc3Cl)c(C(=O)NOCCO)cc21 [AZD6244 free-base]
tolerability [1]: well tolerated
toxicity findings [1]: soft stools and gastrointestinal mucosal mineralization
patients with reduction in Ki67 [2]: 9/20
patients with reduction in Ki67 ≥50% of pre-dose [2]: 5 patients
inhibition of tumor pERK, geometric mean [3]: 81%
solubility [4]: limited solubility
patients with SD ([5]; RECIST, as of 30 September 2006): 17 patients
best overall response ([5]; RECIST): stable disease (SD)
patients with long term (≥5 months) SD ([5]; RECIST): 9 patients
MTD ([5]; free-base mix and drink formulation): 100 mg BD
tissue mineralization [6]: not apparent

AUC(0–8) [7, 15]: 141.3 (41.79) [13] ng•h/mL
AUC(0–12) [7, 15]: 173.4 (39.75) [12] ng•h/mL
Cmax [7, 15]: 41.69 (60.64) ng/mL
AUC(0–8) [7, 16]: 195.9 (36.04) ng•h/mL
AUC(0–12) [7, 16]: 223.9 (34.90) ng•h/mL
Cmax [7, 16]: 66.80 (75.74) ng/mL
AUC(0–8) [7, 17]: 130.4 (39.09) ng•h/mL
AUC(0–12) [7, 17]: 153.3 (39.37) ng•h/mL
Cmax [7, 17]: 43.37 (47.62) ng/mL
AUC(0–8) [7, 18]: 227.5 (57.77) ng•h/mL
AUC(0–12) [7, 18]: 262.7 (53.29) ng•h/mL
Cmax [7, 18]: 72.94 (91.01) ng/mL
AUC(0–8) [7, 19]: 156 ng·h/mL
AUC(0–12) [7, 19]: 181 ng·h/mL
Cmax [7, 19]: 45.6 ng/mL
AUC(0–8) [7, 20]: 347 ng·h/mL
AUC(0–12) [7, 20]: 401 ng·h/mL
Cmax [7, 20]: 109 ng/mL
AUC(0–8) [7, 21]: 279 ng·h/mL
AUC(0–12) [7, 21]: 331 ng·h/mL
Cmax [7, 21]: 79.6 ng/mL
AUC(0–8) [7, 22]: 149 ng·h/mL
AUC(0–12) [7, 22]: 181 ng·h/mL
Cmax [7, 22]: 44.5 ng/mL
AUC(0–8) [7, 23]: 404 ng·h/mL
AUC(0–12) [7, 23]: 454 ng·h/mL
Cmax [7, 23]: 129 ng/mL
AUC(0–8) [7, 24]: 286 ng·h/mL
AUC(0–12) [7, 24]: 344 ng·h/mL
Cmax [7, 24]: 68.3 ng/mL
tmax ([7]; QD cohorts, dosed alone, selumetinib 50 mg cohort (N = 7), erlotinib 100 mg QD): 1.50 (1.00–4.00) h
tmax ([7]; QD cohorts, dosed alone, selumetinib 100 mg cohort (N = 6), erlotinib 100 mg QD): 1.50 (1.50–4.00) h
tmax ([7]; QD cohorts, dosed alone, selumetinib 150 mg cohort (N = 13), erlotinib 100 mg QD): 1.50 (1.00–8.00) h
tmax ([7]; QD cohorts, in combination, selumetinib 50 mg (N = 6) + erlotinib 100 mg QD): 1.50 (1.50–8.00) h
tmax ([7]; QD cohorts, in combination, selumetinib 100 mg (N = 6) + erlotinib 100 mg QD): 1.50 (1.00–2.00) h
tmax ([7]; QD cohorts, in combination, selumetinib 150 mg (N = 12) + erlotinib 100 mg QD): 2.00 (1.00–4.00) h
tmax ([7]; dosed alone, selumetinib 50 mg cohort (N = 14), erlotinib 100 mg QD): 1.5 (1.0–12.0) h
tmax ([7]; dosed alone, selumetinib 75 mg cohort (N = 6), erlotinib 100 mg QD): 1.45 (1.0–2.0) h
tmax ([7]; dosed in combination, selumetinib 50 mg BID (N = 12) + erlotinib 100 mg QD): 1.25 (1.0–4.0) h
tmax ([7]; dosed in combination, selumetinib 75 mg BID (N = 6) + erlotinib 100 mg QD): 1.5 (1.0–2.0) h
PK parameters when administered alone and in combination ([7]; selumetinib + erlotinib arm): similar
AUC(0–8) [9, 25]: 124.3 (80.50) ng•h/mL
AUC(0–12) [9, 25]: 168.2 (54.21) [23] ng•h/mL
Cmax [9, 25]: 35.28 (109.00) ng/mL
AUC(0–8) [9, 26]: 231.1 (68.07) ng•h/mL
AUC(0–12) [9, 26]: 269.4 (62.60) ng•h/mL
Cmax [9, 26]: 75.34 (88.64) ng/mL
AUC(0–8) [9, 27]: 129.4 (59.96) ng•h/mL
AUC(0–12) [9, 27]: 168.2 (57.86) [14] ng•h/mL
Cmax [9, 27]: 38.51 (81.60) ng/mL
AUC(0–8) [9, 28]: 167.8 (51.40) ng•h/mL
AUC(0–12) [9, 28]: 190.5 (55.06) [4] ng•h/mL
Cmax [9, 28]: 48.36 (65.63) ng/mL
tmax [9, 25]: 1.5 (1.0–8.0) h
tmax [9, 26]: 1.5 (1.0–4.0) h
tmax [9, 27]: 2.0 (1.0–2.0) h
tmax [9, 28]: 2.0 (1.0–2.0) h
PK parameters when administered alone and in combination [9]: similar
SMILES: O=C(NOCCO)c1cc2nc[nH]c2c(F)c1Nc1ccc(Br)cc1Cl [N-desmethyl selumetinib]
activity relative to AZD6244 parent compound, inhibition of cell viability [8]: approximately 5 fold
activity relative to AZD6244 parent compound, inhibition of ERK phosphorylation [10]: approximately 3 fold
plasma concentrations/exposure as % of AZD6244 concentrations/exposure ([5]; Part B of the study): ≤ 10%
IC50 [11]: 18.9 µM

SMILES: O=C(NOC[C@H](O)CO)c1ccc(F)c(F)c1Nc1ccc(I)cc1F [PD-0325901]
patients reporting rash [12]: 49%

Cmax [9, 26]: 749.2 (24.61) [5] ng/mL
AUC(0-t) ([9]; human, plasma, iv, dosed alone, selumetinib 50 mg cohort (N = 25), temsirolimus 25 mg IV): 1.58 µg·h/mL
AUC(0–12) ([9]; human, plasma, iv, dosed alone, selumetinib 50 mg cohort (N = 25), temsirolimus 25 mg IV, read-out: AUC(0–12)): 1.88 µg·h/mL
Cmax ([9]; human, plasma, iv, dosed alone, selumetinib 50 mg cohort (N = 25), temsirolimus 25 mg IV, read-out: Cmax): 0.669 µg/mL
AUC(0-t) ([9]; human, plasma, iv, dosed alone, selumetinib 75 mg cohort (N = 6), temsirolimus 25 mg IV): 1.74 µg·h/mL
AUC(0–12) ([9]; human, plasma, iv, dosed alone, selumetinib 75 mg cohort (N = 6), temsirolimus 25 mg IV, read-out: AUC(0–12)): 1.91 µg·h/mL
AUC(0-t) ([9]; human, plasma, iv, dosed in combination, selumetinib 50 mg BID (N = 22) + temsirolimus 25 mg IV): 1.46 µg·h/mL
AUC(0–12) ([9]; human, plasma, iv, dosed in combination, selumetinib 50 mg BID (N = 22) + temsirolimus 25 mg IV, read-out: AUC(0–12)): 1.61 µg·h/mL
Cmax ([9]; human, plasma, iv, dosed in combination, selumetinib 50 mg BID (N = 22) + temsirolimus 25 mg IV, read-out: Cmax): 0.651 µg/mL
AUC(0-t) ([9]; human, plasma, iv, dosed in combination, selumetinib 75 mg BID (N = 5) + temsirolimus 25 mg IV): 1.54 µg·h/mL
AUC(0–12) ([9]; human, plasma, iv, dosed in combination, selumetinib 75 mg BID (N = 5) + temsirolimus 25 mg IV, read-out: AUC(0–12)): 1.74 µg·h/mL
Cmax ([9]; human, plasma, iv, dosed in combination, selumetinib 75 mg BID (N = 5) + temsirolimus 25 mg IV, read-out: Cmax): 0.695 µg/mL
tmax [9, 27]: 1.0 (0.5–1.5) h
tmax [9, 28]: 0.5 (0.5–1.0) h
PK parameters when administered alone and in combination [9]: similar
SMILES: CO[C@H]1C[C@@H]2CC[C@@H](C)[C@@](O)(O2)C(=O)C(=O)N2CCCC[C@H]2C(=O)O[C@H]([C@H](C)C[C@@H]2CC[C@@H](OC(=O)C(C)(CO)CO)[C@H](OC)C2)CC(=O)[C@H](C)/C=C(\C)[C@@H](O)[C@@H](OC)C(=O)[C@H](C)C[C@H](C)/C=C/C=C/C=C/1C [Temsirolimus]
most common (incidence ≥30%) adverse reactions [13]: rash, asthenia, mucositis, nausea, edema, and anorexia

SMILES: CN(C)/N=N/c1[nH]cnc1C(N)=O [dacarbazine]
incidence of hepatic toxicity with hepatic vein thrombosis and hepatocellular necrosis resulting in death ([14]; patients treated): approximately 0.01%
patients affected by anorexia, nausea, and vomiting ([14]; with the initial few doses): Over 90%
